We go through two molecules from publication PMC4718634, “Murine GPRC6A Mediates Cellular Responses to L-Amino Acids, but Not Osteocalcin Variants” (PLoS ONE, 2016).

“Also recorded” adds a separate entry of the source.

Experiment [1] has as its target T1, mGPRC6A (mouse GPRC6A) (Mus musculus, UniProt Q8K4Z6).
T1 sequence (Q8K4Z6 21-928): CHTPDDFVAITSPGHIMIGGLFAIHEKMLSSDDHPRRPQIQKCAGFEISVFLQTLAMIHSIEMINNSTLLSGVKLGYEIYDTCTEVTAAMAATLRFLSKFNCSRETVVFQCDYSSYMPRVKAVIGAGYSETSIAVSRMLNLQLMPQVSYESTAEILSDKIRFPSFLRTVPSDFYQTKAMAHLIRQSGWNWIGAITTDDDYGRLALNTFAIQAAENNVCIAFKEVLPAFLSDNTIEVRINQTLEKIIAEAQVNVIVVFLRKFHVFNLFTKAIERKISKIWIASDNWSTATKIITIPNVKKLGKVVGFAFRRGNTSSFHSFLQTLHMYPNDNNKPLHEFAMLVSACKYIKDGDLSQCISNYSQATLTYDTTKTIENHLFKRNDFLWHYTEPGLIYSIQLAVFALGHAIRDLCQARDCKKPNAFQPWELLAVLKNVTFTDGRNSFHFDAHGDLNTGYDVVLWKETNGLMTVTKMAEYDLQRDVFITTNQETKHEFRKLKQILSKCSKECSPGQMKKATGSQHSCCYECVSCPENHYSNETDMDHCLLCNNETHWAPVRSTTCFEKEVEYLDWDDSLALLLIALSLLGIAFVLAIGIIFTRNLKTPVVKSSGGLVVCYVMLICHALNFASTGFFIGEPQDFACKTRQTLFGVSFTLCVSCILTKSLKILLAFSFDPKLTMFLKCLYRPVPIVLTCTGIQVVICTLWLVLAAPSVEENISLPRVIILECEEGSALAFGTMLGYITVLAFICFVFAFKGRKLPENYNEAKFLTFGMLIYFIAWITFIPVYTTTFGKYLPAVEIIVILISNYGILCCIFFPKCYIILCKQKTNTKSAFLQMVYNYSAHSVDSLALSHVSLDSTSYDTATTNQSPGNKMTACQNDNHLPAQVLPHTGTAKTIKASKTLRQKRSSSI
The experiment in a line: Label-free cell impedance (xCELLigence), tetracycline-induced FlpIn-TREx-HEK293-mGPRC6A cells. The experiment is classed as cell-based. The method, then:
2.5 x 10^7 FlpIn-TREx-HEK293-mGPRC6A cells were seeded in a T175 flask and incubated overnight at 37°C in 5% CO2. Cells were then transfected with 35 μg of plasmid DNA (GαqG66D) with Lipofectamine LTX according to manufacturer's instructions, then incubated for 24h at 37°C in 5% CO2. Prior to the experiment, a background reading for each E-plate 96 (Bio-Rad, CA, USA) was measured after addition of 100 μl DMEM + 10% FBS per well. Cells were recovered using Versene and seeded at a 10^5 cells/well density in 200 μl DMEM + 10% FBS (containing 1 μg/ml tetracycline where indicated). Cells were washed 2 x 2 h in HBSS buffer (pH 7.2) containing 20 mM HEPES, 1 mM CaCl2 and 0.1% BSA (w/v) in a total volume of 180 μl. Test compounds (20 μl at 10x final concentration) were added to the plate and cell impedance was monitored for 3 h. Cell index was normalised to the buffer response (minus the baseline response at zero time point).
Concentration-response data were analysed using a three or four parameter logistic function (Motulsky & Christopoulos, 2004) to generate estimates of agonist potency (LogEC50). Data for all HEK293 assays represent the mean ± SEM of at least three independent experiments (except cell impedance, n = 2). For GLP-1 release, the data represent mean ± SEM of three to five independent experiments (except for OCN, wash; n = 2). For insulin release assays, data represent the mean ± SEM of three independent experiments (except for islet studies; n = 2). Insulin release data were normalised to the response to vehicle in either low or high [glucose]. Statistical analysis for GLP-1 release data were performed by one-way ANOVA, followed by Sidak’s multiple comparisons test (treating wash / no wash datasets separately). Statistical analyses for insulin release data were performed by two-way ANOVA (with [glucose] and drug treatment as group variables), followed by Sidak’s multiple comparisons test. Where only high [glucose] groups were evaluated, statistical analysis was by one-way ANOVA followed by Sidak’s multiple comparisons test.

For experiment [2], the target named is T1, mGPRC6A (mouse GPRC6A). The experiment in a line: Cyclic AMP accumulation, FlpIn-TREx-HEK293-mGPRC6A cells. The experiment is classed as cell-based. The protocol:
pcDNA 5/FRT/TO constructs were isogenically integrated into a FlpIn-TREx-HEK293 cell line (Life Technologies). FlpIn-TREx-HEK293-mGPRC6A and FlpIn-TREx-HEK293-hGPRC6A cells were then selected using 600 μg/ml hygromycin and 5 μg/ml blasticidin and grown in culture medium consisting of Dulbecco’s Modified Eagle Medium (DMEM), supplemented with 10% (v/v) foetal bovine serum (FBS) at 37°C in 5% CO2 and were sub-cultured in a 1:3 ratio every 3–4 days. Cells were cultured overnight in the presence of 1 μg/ml tetracycline to induce GPRC6A expression. […] 48 h after transfection, cells were selected using 3 μg/ml puromycin and grown as above.
HEK293-mGPRC6A cells were seeded at a density of 10^5 cells per well into PDL-coated 96-well plates and incubated overnight in DMEM, supplemented with 10% FBS (v/v) at 37°C in 5% CO2. Cells were then incubated in 90 μl of stimulation buffer (HBSS containing 5 mM HEPES, 0.1% BSA (w/v), 0.5 mM IBMX; pH 7.4) for 30 min at 37°C. Test compounds (10 μl at 10 x final) were added and cells were incubated for an additional 30 min at 37°C. The medium was removed and cells were incubated in 50 μl of ice-cold 100% ethanol. Once evaporated, 100 μl of lysis buffer (5 mM HEPES, 0.1% BSA (w/v), 0.3% Tween-20; pH 7.4) was added to the cells and samples were stored at -20°C until further analysis. Samples were analysed using the Alphascreen® cAMP assay kit (Perkin Elmer) following manufacturer instructions. Briefly, 10 μl of lysates were added to a 384-well Optiplate. After addition of 5 μl of acceptor bead mix, plate was incubated at RT for 30 min followed by addition of 15 μl of donor bead mix. After overnight (16 h) incubation at RT, plates were read using the Envision plate reader.

Take `NCCC[C@H](N)C(=O)O` [L-ornithine]: the EC50 on mGPRC6A (mouse GPRC6A) [1] (tetracycline-induced, GαqG66D, xCELLigence, n = 2, read-out: pEC50, cell impedance (converted)) is 63.1 µM. In addition, the “cell impedance (cell index) response” value on mGPRC6A (mouse GPRC6A) [1] (tetracycline-induced, xCELLigence, Fig 4) was “only mGPRC6A-expressing cells responded to L-ornithine; also recorded: increases cellular impedance only in tetracycline-induced cells”. The “stimulation of cAMP accumulation” value on mGPRC6A (mouse GPRC6A) [2] (30 min, 0.5 mM IBMX, Alphascreen, Fig 3A) is on record as “no detectable modulation of cAMP accumulation”. The “inhibition of forskolin-stimulated cAMP” value against mGPRC6A (mouse GPRC6A) [2] (forskolin 3 μM, Fig 3A) was “neither L-ornithine nor OCN variants inhibited cAMP levels stimulated by forskolin; also recorded: Neither L-ornithine nor OCN variants inhibit”.

Turning to “OCN: osteoblast-derived peptide, osteocalcin; variant not specified at the place (YLYQWLGAPVPYPDPLEPRREVCELNPDCDELADHIGFQEAYRRFYGPV; UniProt P02818 52-100, looked up)”, the “xCELLigence response (summary)” value with mGPRC6A (mouse GPRC6A) [1] (S1 Table) is “No response”. Also, the “cAMP response (summary)” value with mGPRC6A (mouse GPRC6A) [2] (S1 Table) is recorded as “no response”.
